Measured values from US7087626B2, “Pyrrole derivatives as pharmaceutical agents” (Eli Lilly and Company, priority 2001, dated 2006).

How the values were obtained:
[1] = target: T1, TGF-β Type I (RIT204D) receptor (Homo sapiens, UniProt P36897, T204D); assay: TGF-β Receptor I (RIT204D) in vitro kinase reaction; format: biochemical; settings: 6×-HIS cytoplasmic kinase domain, 4 uM ATP, 30° C., 1 hr
T1 construct: The 6×-HIS tagged cytoplasmic kinase domain of each receptor was expressed and purified from Sf9 insect cell lysates; 6xHis; made in house; host or cells: Sf9 insect cells
T1 sequence (P36897 148-503 T204D limits assumed): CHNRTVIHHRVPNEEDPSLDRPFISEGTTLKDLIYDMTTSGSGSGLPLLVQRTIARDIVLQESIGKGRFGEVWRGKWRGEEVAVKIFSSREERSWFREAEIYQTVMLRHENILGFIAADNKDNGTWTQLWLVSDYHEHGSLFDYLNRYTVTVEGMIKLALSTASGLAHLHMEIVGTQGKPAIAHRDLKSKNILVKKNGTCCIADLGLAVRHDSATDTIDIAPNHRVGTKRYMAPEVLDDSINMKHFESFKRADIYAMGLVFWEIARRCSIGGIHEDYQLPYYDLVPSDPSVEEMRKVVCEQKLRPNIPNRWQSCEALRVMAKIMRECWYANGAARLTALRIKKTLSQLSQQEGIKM
Experimental: (§1) TGF-β Receptor I and II Purification and in vitro Kinase Reactions
(§2) For TGF-β Type I (RIT204D) and Type II (RII WT) Receptors: The 6×-HIS tagged cytoplasmic kinase domain of each receptor was expressed and purified from Sf9 insect cell lysates as briefly described below:
(§3) Cell pellets after 48-72 hrs of infection were lysed in lysis buffer (LB: 50 mM Tris pH 7.5, 150 mM NaCl, 50 mM NaF, 0.5% NP40 with freshly added 20 mM, β-mercaptoethanol, 10 mM imidazole, 1 mM PMSF, 1×EDTA-free Complete Protease Inhibitor (Boehringer Mannheim).
(§4) Reactions: 170-200 nM enzyme in 1×KB, compound dilution series in 1×KB/16% DMSO (20 uM to 1 nM final concentration with 4% DMSO final concentration), reactions started by adding ATP mix (4 uM ATP/1 uCi ^33P-[…]-ATP final concentrations) in 1×KB.
(§5) Reactions were incubated at 30° C. for 1 hr RIT204D or 40 min for RII WT. Reactions were stopped and quantitated using standard TCA/BSA precipitation onto Millipore FB glass fiber filter plates and by liquid scintillation counting on a MicroBeta JET.

[2] = target: T2, TGF-β Type II (RII WT) receptor (Homo sapiens, UniProt P37173); assay: TGF-β Receptor II (RII WT) in vitro kinase reaction; format: biochemical; settings: 6×-HIS cytoplasmic kinase domain, 4 uM ATP, 30° C., 40 min
T2 construct: The 6×-HIS tagged cytoplasmic kinase domain of each receptor was expressed and purified from Sf9 insect cell lysates; 6xHis; made in house; host or cells: Sf9 insect cells
T2 sequence (P37173 244-544 limits assumed): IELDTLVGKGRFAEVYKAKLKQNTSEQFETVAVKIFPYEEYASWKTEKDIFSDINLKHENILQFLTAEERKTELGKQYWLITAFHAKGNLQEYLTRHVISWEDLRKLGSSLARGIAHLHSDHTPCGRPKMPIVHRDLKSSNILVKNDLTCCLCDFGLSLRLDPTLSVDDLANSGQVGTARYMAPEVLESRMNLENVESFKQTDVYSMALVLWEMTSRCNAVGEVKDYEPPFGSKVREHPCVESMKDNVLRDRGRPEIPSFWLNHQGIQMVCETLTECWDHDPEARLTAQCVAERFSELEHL
Experimental: as §1, §2, §3
Cell lysates were clarified: by centrifugation and […] filtered prior to purification by Ni/NTA affinity chromatography (Qiagen).
Equilibrate with 10 CV of LB, load sample, wash with 10 CV RIPA buffer (50 mM Tris pH 7.5, 150 mM NaCl, 1% NP40, 1 mM EDTA, 0.25% sodium deoxycholate, added fresh 20 mM β-mercaptoethanol, 1 mM PMSF), wash with 10 CV LB, wash with 10 CV 1×KB (50 mM Tris pH 7.5, 150 mM NaCl, 4 mM MgCl2, 1 mM NaF, 2 mM β-mercaptoethanol), elute with a linear gradient of 1×KB containing 200 mM Imidazole.
Both enzymes were approximately 90% pure and had autophosphorylation activity.
as §4, §5

SMILES | IC50 [1] [µM] | IC50 [2] [µM]
Cc1cccc(-c2nn3c(c2-c2ccc(F)cc2)CCC3)n1 [3-(4-Fluorophenyl)-2-(6-methylpyridin-2-yl)-5,6-dihydro-4H-pyrrolo[1,2-b]pyrazole] | < 20 | –
O=C(NC1CC1)c1ccc2c(-c3c(-c4ccccn4)nn4c3CCC4)ccnc2c1 [4-(2-Pyridin-2-yl-5,6-dihydro-4H-pyrrolo[1,2-b]pyrazol-3-yl)-quinoline-7-carboxylic acid cyclopropylamide] | – | < 20
CC(=O)NCCCOc1ccc2c(-c3c(-c4ccccn4)nn4c3CCC4)ccnc2c1 [N-{3-[4-(2-Pyridin-2-yl-5,6-dihydro-4H-pyrrolo[1,2-b]pyrazol-3-yl)-quinolin-7-yloxy]-propyl}-acetamide] | < 20 | –
Cc1cccc(-c2nn3c(c2-c2cccnc2)CCC3)n1 [2-(6-methyl-pyridin-2-yl)-3-pyridin-3-yl-5,6-dihydro-4H-pyrrolo[1,2-b]pyrazole] | < 20 | –
COC(=O)/C=C/c1ccc2c(-c3c(-c4cccc(C)n4)nn4c3CCC4)ccnc2c1 [3-{4-[2-(6-Methyl-pyridin-2-yl)-5,6-dihydro-4H-pyrrolo[1,2-b]pyrazol-3-yl]-quinolin-7-yl}-acrylic acid methyl ester] | < 20 | –
CN(C)CCCNc1cc(-c2c(-c3ccccn3)nn3c2CCC3)ccn1 [N,N-Dimethyl-N′-[4-(2-pyridin-2-yl-5,6-dihydro-4H-pyrrolo[1,2-b]pyrazol-3-yl)-pyridin-2-yl]-propane-1,3-diamine] | < 20 | –
CN(C)CCCCOc1cc(-c2c(-c3ccccn3)nn3c2CCC3)ccn1 [Dimethyl-{4-[4-(2-pyridin-2-yl-5,6-dihydro-4H-pyrrolo[1,2-b]pyrazol-3-yl)-pyridin-2-yloxy]-butyl}-amine] | < 20 | –
COc1ccc(-c2c(-c3cccc(C)n3)nn3c2CCC3)cc1 [3-(4-Methoxyphenyl)-2-(6-methylpyridin-2-yl)-5,6-dihydro-4H-pyrrolo[1,2-b]pyrazole] | < 20 | –
CCCNC(=O)c1ccc2c(-c3c(-c4ccccn4)nn4c3CCC4)ccnc2c1 [4-(2-Pyridin-2-yl-5,6-dihydro-4H-pyrrolo[1,2-b]pyrazol-3-yl)-quinoline-7-carboxylic acid propylamide] | < 20 | –
CCN(C)CCCOc1ccc2c(-c3c(-c4ccccn4)nn4c3CCC4)ccnc2c1 [Ethyl-methyl-{3-[4-(2-pyridin-2-yl-5,6-dihydro-4H-pyrrolo[1,2-b]pyrazol-3-yl)-quinolin-7-yloxy]-propyl}-amine] | – | < 20
Cc1cccc(-c2nn3c(c2-c2ccnc4cc(Br)ccc24)CCC3CO)n1 (stereo not drawn) [[3-(7-Bromo-quinolin-4-yl)-2-(6-methyl-pyridin-2-yl)-5,6-dihydro-4H-pyrrolo[1,2-b]pyrazol-6-yl]3-methanol] | – | < 20
Cc1cccc(-c2nn3c(c2-c2ccnc4cc(C=CC(=O)O)ccc24)CCC3)n1 [3-{4-[2-(6-Methyl-pyridin-2-yl)-5,6-dihydro-4H-pyrrolo[1,2-b]pyrazol-3-yl]-quinolin-7-yl}-acrylic acid] | – | < 20
CCC(C)CNC(=O)c1ccc2c(-c3c(-c4ccccn4)nn4c3CCC4)ccnc2c1 (stereo not drawn) [4-(2-Pyridin-2-yl-5,6-dihydro-4H-pyrrolo[1,2-b]pyrazol-3-yl)-quinoline-7-carboxylic acid(2-methyl-butyl)-amide] | – | < 20
COc1cccc(C2Cc3c(-c4ccnc5ccccc45)c(-c4ccccn4)nn3C2)c1 (stereo not drawn) [4-[5-(3-Methoxy-phenyl)-2-pyridin-2-yl-5,6-dihydro-4H-pyrrolo[1,2-b]pyrazol-3-yl]-quinoline] | – | < 20
CN(C)CCNC(=O)COc1ccc2c(-c3c(-c4ccccn4)nn4c3CCC4)ccnc2c1 [N-(2-dimethylamino-ethyl)-2-[4-(2-pyridin-2-yl-5,6-dihydro-4H-pyrrolo[1,2-b]pyrazol-3-yl)-quinolin-7-yloxy]-acetamide] | < 20 | < 20
CN(C)CCCN(C)C(=O)c1ccc2c(-c3c(-c4ccccn4)nn4c3CCC4)ccnc2c1 [4-(2-Pyridin-2-yl-5,6-dihydro-4H-pyrrolo[1,2-H]pyrazol-3-yl)-quinoline-7-carboxylic acid(3-dimethylamino-propyl)-methyl-amide] | < 20 | –
CC(C)c1cc(-c2c(-c3ccccn3)nn3c2CCC3)c2ccc(Br)cc2n1 [7-Bromo-2-isopropyl-4-(2-pyridin-2-yl-5,6-dihydro-4H-pyrrolo[1,2-b]pyrazol-3-yl)-quinoline] | – | < 20
O=C1OCCN1c1ccc2c(-c3c(-c4ccccn4)nn4c3CCC4)ccnc2c1 [3-[4-(2-Pyridin-2-yl-5,6-dihydro-4H-pyrrolo[1,2-b]pyrazol-3-yl)-quinolin-7-yl]-oxazolidin-2-one] | – | < 20

Results, then the molecule that gave them:

IC50 [1] [µM] | IC50 [2] [µM] | SMILES
< 20 | – | c1csc(-c2nn3c(c2-c2ccnc4ccccc24)CCC3)c1 [4-(2-Thiophen-2-yl-5,6-dihydro-4H-pyrrolo[1,2-b]pyrazol-3-yl)quinoline]
– | < 20 | OC1CCCc2c(-c3ccnc4ccccc34)c(-c3ccccn3)nn21 (stereo not drawn) [2-Pyridin-2-yl-3-quinolin-4-yl-pyrazolo[1,5-a]piperidin-7-ol]
– | < 20 | O=C(Nc1ccccn1)c1ccc2c(-c3c(-c4ccccn4)nn4c3CCC4)ccnc2c1 [4-(2-Pyridin-2-yl-5,6-dihydro-4H-pyrrolo[1,2-b]pyrazol-3-yl)-quinoline-7-carboxylic acid pyridin-2-ylamide]
< 20 | – | c1ccc(Cc2cccc(-c3nn4c(c3-c3ccnc5ccccc35)CCC4)n2)cc1 [4-[2-(6-Benzyl-pyridin-2-yl)-5,6-dihydro-4H-pyrrolo[1,2-b]pyrazol-3-yl]-quinoline]
– | < 20 | FC(F)(F)c1cccc(-c2nn3c(c2-c2ccnc4ccccc24)CCC3)c1 [4-[2-(3-Trifluoromethylphenyl)-5,6-dihydro-4H-pyrrolo[1,2-b]pyrazol-3-yl]-quinoline]
– | < 20 | Nc1ccc2c(-c3c(-c4ccccn4)nn4c3CCC4)ccnc2c1 [4-(2-Pyridin-2-yl-5,6-dihydro-4H-pyrrolo[1,2-b]pyrazol-3-yl)-quinolin-7-ylamine]
– | < 20 | ClCCCOc1ccc2c(-c3c(-c4ccccn4)nn4c3CCC4)ccnc2c1 [7-(3-Chloro-propoxy)-4-(2-pyridin-2-yl-5,6-dihydro-4H-pyrrolo[1,2-b]pyrazol-3-yl)-quinoline]
< 20 | – | Clc1cccc(-c2nn3c(c2-c2ccnc4ccccc24)CCCC3)c1 [4-[2-(3-Chloro-phemyl)-4,5,6,7-tetrahydro-pyrazolo[1,5-alpyridin-3-y]-quinoline]
< 20 | – | CS(=O)(=O)c1ccc2c(-c3c(-c4ccccn4)nn4c3CCC4)ccnc2c1 [7-Methanesulfonyl-4-(2-pyridin-2-yl-5,6-dihydro-4H-pyrrolo[1,2-b]pyrazol-3-yl)-quinoline]
– | < 20 | CN(C)CCOc1ccc2c(-c3c(-c4ccccn4)nn4c3CCC4)ccnc2c1 [Dimethyl-{2-[4-(2-pyridin-2-yl-5,6-dihydro-4H-pyrrolo[1,2-b]pyrazol-3-yl)-quinolin-7-yloxy]-ethyl}-amine]
– | < 20 | Cc1cccc(-c2nn3c(c2-c2ccnc4ccc(-c5ccccc5)cc24)CCC3)n1 [4-[2-(6-Methyl-pyridin-2-yl)-5,6-dihydro-4H-pyrrolo[1,2-b]pyrazol-3-yl]-6-phenyl-quinoline]
< 20 | – | FC(F)(F)Oc1cccc(-c2nn3c(c2-c2ccnc4ccccc24)CCC3)c1 [4-[2-(3-Trifluoromethoxy-phenyl)-5,6-dihydro-4H-pyrrolo[1,2-b]pyrazol-3-yl]-quinoline]
< 20 | < 20 | CN(C)CCCOc1ccc2c(-c3c(-c4ccccn4)nn4c3CCC4)ccnc2c1 [Dimethyl-{3-[4-(2-pyridin-2-yl-5,6-dihydro-4H-pyrrolo[1,2-b]pyrazol-3-yl)-quinolin-7-yloxy]-propyl}-amine]
